From patent US6441195B1, “Substituted sulphonylamino(thio) carbonyl compounds” (Bayer Aktiengesellschaft, priority 1995, dated 2002) come the findings set out here.

Holding throughout (format): in vivo
For one series, the system named is Solanum. Kind of series: Pre-emergence test/Greenhouse, Solanum. The following applies: after three weeks. The procedure: (§1) To produce a suitable preparation of the active compound, 1 part by weight of active compound is mixed with the stated amount of solvent, the stated amount of emulsifier is added and the concentrate is diluted with water to the desired concentration.
(§2) Seeds of the test plants are sown in normal soil. After about 24 hours, the soil is watered with the preparation of active compound. Advantageously, the amount of water per unit area is kept constant. The active compound concentration in the preparation is not important, only the active compound appliation rate per unit area matters.
(§3) After three weeks, the degree of damage to the plants is rated in % damage in comparison to the development of the untreated control.
(§4) 0%=no action (like untreated control)

The subject of a further series is weeds. Kind of series: Pre-emergence test (greenhouse), activity against weeds. The following applies: in words. The procedure: Solvent: 5 parts by weight of acetone
Emulsifier: 1 part by weight of alkylaryl polyglycol ether
as §1, §2, §3, §4

In another series the test system is Maize. Nature of the series: Pre-emergence test/Greenhouse, Maize. The following applies: in vivo. Here is the method: as §1, §2, §3, §4
The subject of the next series is Matricaria. Kind of series: Pre-emergence test/Greenhouse, Matricaria. The note with it: after three weeks. The procedure: as §1, §2, §3, §4
Another series has as its system Poa. Nature of the series: Pre-emergence test/Greenhouse, Poa. The following applies: after three weeks. The procedure: as §1, §2, §3, §4
For another series, the system named is Ambrosia. Nature of the series: Pre-emergence test/Greenhouse, Ambrosia. The note with it: 125 g of ai./ha, after three weeks. The procedure: as §1, §2, §3, §4
The next series has as its system Sorghum. Kind of series: Pre-emergence test/Greenhouse, Sorghum. The following applies: after three weeks. The procedure: as §1, §2, §3, §4
For the next series, the system named is Lolium. Nature of the series: Pre-emergence test/Greenhouse, Lolium. The following applies: after three weeks. The procedure: as §1, §2, §3, §4

For the compound `CCCOc1nn(C(=O)NS(=O)(=O)c2c(C)csc2C(=O)OC)c(=O)n1C` [Example 33], in the series on Solanum (125 g of ai./ha), the “degree of damage to the plants (% damage vs untreated control), Solanum” value is recorded as 95%. Also, in the series with weeds, the activity against weeds result was “very strong activity against weeds”. Further, in the series on Maize, the “degree of damage to the plants (% damage vs untreated control), Maize” value (shortened to “degree … (% damage vs untreated control), Maize”) was determined as 10%. In addition, the “degree of damage to the plants (% damage vs untreated control), Matricaria” value with Matricaria (125 g of ai./ha) stood at 95%. For the same compound, the “degree of damage to the plants (% damage vs untreated control), Poa” value (“degree … (% damage vs untreated control), Poa” for short) with Poa (125 g of ai./ha) was 90%. The “degree of damage to the plants (% damage vs untreated control), Ambrosia” value in the series on Ambrosia worked out at 90%. In addition, the “degree of damage to the plants (% damage vs untreated control), Sorghum” value with Sorghum (125 g of ai./ha) was found to be 80%.

On to `CCOC(=O)c1scc(C)c1S(=O)(=O)NC(=O)n1nc(OC)n(C)c1=O` [Example 57], for which the “degree of damage to the plants (% damage vs untreated control), Solanum” value in the series on Solanum (60 g of ai./ha) is reported as 95%. In the series with weeds, the activity against weeds entry is reported as “very strong activity against weeds”. Also, the “degree … (% damage vs untreated control), Maize” value with Maize was 0%. Also, in the series with Matricaria (60 g of ai./ha), the “degree of damage to the plants (% damage vs untreated control), Matricaria” value is recorded as 95%. For the same compound, in the series on Poa (60 g of ai./ha), the “degree … (% damage vs untreated control), Poa” value came out at 95%. For the same compound, the “degree of damage to the plants (% damage vs untreated control), Lolium” value (shortened to “degree … (% damage vs untreated control), Lolium”) in the series on Lolium (60 g of ai./ha) is given as 95%. The “degree of damage to the plants (% damage vs untreated control), Sorghum” value with Sorghum (60 g of ai./ha) stood at 95%.

`CCOC(=O)c1scc(C)c1S(=O)(=O)NC(=O)n1nc(OCC(F)(F)F)n(C)c1=O` [Example 62]: in the series with Solanum (125 g of ai./ha), the “degree of damage to the plants (% damage vs untreated control), Solanum” value was 95%. In addition, the activity against weeds result in the series with weeds is recorded as “very strong activity against weeds”. Also, the “degree … (% damage vs untreated control), Maize” value with Maize is reported as 0%. For the same compound, in the series on Matricaria (125 g of ai./ha), the “degree of damage to the plants (% damage vs untreated control), Matricaria” value is 95%. The “degree … (% damage vs untreated control), Poa” value with Poa (125 g of ai./ha) came to 90%. The “degree … (% damage vs untreated control), Lolium” value in the series on Lolium (125 g of ai./ha) worked out at 80%. Also, in the series on Sorghum (125 g of ai./ha), the “degree of damage to the plants (% damage vs untreated control), Sorghum” value is reported as 60%.

On to `CCOC(=O)c1scc(C)c1S(=O)(=O)NC(=O)n1nc(C)n(C)c1=O` [Example 65], for which the “degree of damage to the plants (% damage vs untreated control), Solanum” value in the series with Solanum (125 g of ai./ha) is given as 95%. Also, the activity against weeds entry in the series with weeds is “very strong activity against weeds”. The “degree … (% damage vs untreated control), Maize” value in the series with Maize is 20%. Moreover, the “degree of damage to the plants (% damage vs untreated control), Matricaria” value with Matricaria (125 g of ai./ha) is 95%. Further, in the series on Poa (125 g of ai./ha), the “degree … (% damage vs untreated control), Poa” value was 80%. Moreover, the “degree … (% damage vs untreated control), Lolium” value in the series with Lolium (125 g of ai./ha) was 80%. Further, the “degree of damage to the plants (% damage vs untreated control), Sorghum” value with Sorghum (125 g of ai./ha) is given as 80%.

Take `CCCOC(=O)c1scc(C)c1S(=O)(=O)NC(=O)n1nc(OCC)n(C2CC2)c1=O` [Example 93]: the “degree of damage to the plants (% damage vs untreated control), Solanum” value with Solanum (60 g of ai./ha) was found to be 90%. In the series on weeds, the activity against weeds entry is listed as “very strong activity against weeds”. Besides, the “degree … (% damage vs untreated control), Maize” value in the series with Maize was 0%. Also, the “degree of damage to the plants (% damage vs untreated control), Matricaria” value with Matricaria (60 g of ai./ha) is 95%. In the series on Lolium (60 g of ai./ha), the “degree … (% damage vs untreated control), Lolium” value is given as 90%. In addition, the “degree of damage to the plants (% damage vs untreated control), Sorghum” value in the series on Sorghum (60 g of ai./ha) was 80%.

As to `CCCc1nn(C(=O)NS(=O)(=O)c2c(C)csc2C(=O)OC(C)C)c(=O)n1C` [Example 108], the “degree of damage to the plants (% damage vs untreated control), Solanum” value with Solanum (125 g of ai./ha) is given as 90%. The activity against weeds entry in the series on weeds is “very strong activity against weeds”. For the same compound, the “degree … (% damage vs untreated control), Maize” value in the series on Maize was determined as 5%. In the series on Matricaria (125 g of ai./ha), the “degree of damage to the plants (% damage vs untreated control), Matricaria” value is given as 95%. Besides, the “degree … (% damage vs untreated control), Lolium” value in the series with Lolium (125 g of ai./ha) was found to be 90%. For the same compound, the “degree of damage to the plants (% damage vs untreated control), Sorghum” value in the series on Sorghum (125 g of ai./ha) is 95%.

As to `COC(=O)c1cccc(C)c1S(=O)(=O)NC(=O)c1ncc(C)o1` [Example 121], the “degree of damage to the plants (% damage vs untreated control), Solanum” value in the series on Solanum (500 g of ai./ha) is 95%. Moreover, the activity against weeds entry in the series on weeds is on record as “very strong activity against weeds”. In the series with Maize, the “degree … (% damage vs untreated control), Maize” value stood at 10%. In addition, the “degree of damage to the plants (% damage vs untreated control), Matricaria” value with Matricaria (500 g of ai./ha) was 90%. In addition, in the series with Lolium (500 g of ai./ha), the “degree … (% damage vs untreated control), Lolium” value worked out at 70%. For the same compound, the “degree of damage to the plants (% damage vs untreated control), Sorghum” value with Sorghum (500 g of ai./ha) is 80%.
